Data: patent publication US20060039887A1, “Cosmetic or pharmaceutical composition for skin care” (Infinity2 Health Sciences, Inc., priority 2004, published 2006)
Blank lines part the entries; values can stand above or below the compound they belong to.

Experiments:
[1] = pH of 1 wt % solution in water; format: physicochemical; details: 1 wt % (1%) water solution
[2] = from water solutions
[3] = stability of water solution; format: physicochemical
[4] = Stability of Cu-ATP solution, Hunter Lab L*a*b* color readings; format: physicochemical; set-up: key to color reading "L": L* lightness: 100 = white to 0 = black; key to color reading "a": a*: negative = greener, positive = redder; key to color reading "b": b*: negative = bluer, positive = yellower; details: full light, ambient room temperature
Source text: It should be noted that, where relevant, composition ingredients and the like are provided in weight percentages. Further, where applicable, color measurements were done on a Hunter Lab color meter. This color meter measures color on a scale defined as L*a*b* scale. The term “L” is from 100 to 0, representing white and black colors (lightness and darkness), respectively. A (−) value of “a” indicates a more green color. A (+) value of “a” indicates a more red color. A (−) value of “b” indicates a more blue color. A (+) value of “b” indicates a more yellow color. Various numeric values of “a” and “b” indicate degree of respective colors. Mixed colors are thus indicated by a mixed value of L*a*b* as will be noted in various examples below. The materials used had the following properties. Adenosine triphosphate disodium hydrate (molecular weight 551 Da), glutathione (molecular weight 307 Da), copper gluconate (molecular weight 453 Da, Cu=14%), copper amino acid chelate (copper 12%), fructose-1,6-diphosphate dicalcium (molecular weight 416 Da), zinc gluconate (molecular weight 455 Da, Zn=1 4%), manganese gluconate (molecular weight 445 Da, Mn=12%). The analysis of trace metals quoted in ppm in various examples, as noted below, are within +-10%.
The solution “C” obtained in Example 2 was stored in a beaker with a plastic film wrapped over it. The solution was stored in full light (fluorescent lamps) under ambient room temperature conditions. The color readings were measured periodically, and any visually observed discolorations, or precipitate formations, if any, were also recorded, as noted below.

absorption into skin [2]: rapidly absorbed
pH of 1 wt % solution in water [1]: 3.7
stability of water solution [3]: good
Compound: NC(=O)c1cccnc1.O=C1O[C@H]([C@@H](O)CO)C(O)=C1O [Niacinamide ascorbate]

pH of 1 wt % solution in water [1]: 2.6
stability of water solution [3]: poor
Compound: O=C1O[C@H]([C@@H](O)CO)C(O)=C1O [ascorbic acid]

pH of 1 wt % solution in water [1]: 6.3
stability of water solution [3]: good
Compound: NC(=O)c1cccnc1 [niacinamide]

Second part, the compound before the results:

Compound: Nc1ncnc2c1ncn2[C@@H]1O[C@H](COP(=O)(O)OP(=O)(O)OP(=O)(O)O)[C@@H](O)[C@H]1O [ATP, adenosine triphosphate]
pH of 1 wt % solution in water [1]: 2.0

Compound: O=C(O)[C@H](O)[C@@H](O)[C@H](O)[C@H](O)CO [gluconic acid]
pH of 1 wt % solution in water [1]: 2.5

Compound: Copper ATP [Cu-ATP Solution]
color reading "L" ([4]; 1 Week): 51.35
color reading "a" ([4]; 1 Week): −35.38
color reading "b" ([4]; 1 Week): −5.16
color reading "L" ([4]; 4 Weeks): 50.54
color reading "a" ([4]; 4 Weeks): −36.08
color reading "b" ([4]; 4 Weeks): −5.56
color reading "L" ([4]; Initial): 53.52
color reading "a" ([4]; Initial): −33.58
color reading "b" ([4]; Initial): −4.19
